Patent publication US7417044B2, “Tadalafil having a large particle size and a process for preparation thereof” (Teva Pharmaceutical Industries Ltd., priority 2005, dated 2008)
“And” between values parts separate entries of the source, which are not always exact repeats. Equal entries are not always repeated.

Tests used:
[1] = Particle size of tadalafil by Malvern laser diffraction (Mastersizer S); type: physicochemical
Description: Measurement and characterization of particle size distributions is known in the art. It is possible to compare samples of particulate tadalafil on the basis of individual points on a cumulative particle size distribution curve. The measurements are represented as d(0.X)=Y (where X and Y are Arabic numerals), each “d” describing an individual point on a cumulative PSD curve. The number “X” represents the percentage (number, volume, or weight) of particles in the population having a nominal size up to and including “Y”. Thus, d(0.9)=250μ is characteristic of a PSD in which 90% (number, volume, or weight) of the particles in a population have a nominal size of about 250μ or less (at least some particles having a nominal dimension of 250μ) and so forth. When PSD is determined by the well-know laser-diffraction method described herein, the d(0.X) measurement depicts a volume average. The particle size of tadalafil described herein was measured by Malvern Laser Diffraction using a Mastersizer S instrument. The measuring instrument was equipped with a small cell dispersion unit MS1 with a digital dispersion unit controller. The measurement was performed by using range lens 300RF (working range 0.05-900 mcm), beam length: 2.40 mm, presentation 3$$D (Fraunhofer), number of sweeps 4000, and speed rate 2300±10 rpm. The dilution medium was 0.1% w/v Span 80 in a saturated solution of tadalafil in cyclohexane. The measurement began after 10 seconds of recirculation, after the powder was added directly into the measurement cell filled with the dilution medium. According to the accepted rules of Good Manufacturing Procedures, a sample of tadalafil was measured after a successful blank measurement (% obscuration NMT 0.1%) was performed.

[2] = prior-art tadalafil of U.S. Pat. No. 6,821,975; cited from earlier work

particle size, d(0.9) ([1]; Example 1, final dry material after industrial-scale crystallization from acetone/water with heating/cooling cycles): 60-500 microns
particle size, d(0.9) ([1]; Example 2, final dry material after crystallization from acetone/water with heating/cooling cycles): > 60 microns
particle size, d(0.9) ([1]; Example 3, after milling with micronizer, 50 mm, 4.0 bar feed air and 3.0 bar milling air): about 228.7 microns
particle size, d(0.9) ([1]; Example 4, after milling with micronizer, 50 mm, 2.0 bar feed air and 1.0 bar milling air): about 105.8 microns
particle size, d(0.9) ([1]; Example 5, after milling with Pin-Mill, 9.6 Kg/hr feed rate and 12,000 rpm milling speed): about 52.4 microns
particle size, d(0.9) ([1]; Example 6, after milling with Pin-Mill, 9.6 Kg/hr feed rate and 4500 rpm milling speed): about 202.7 microns
Structure (SMILES): CN1CC(=O)N2[C@H](c3ccc4c(c3)OCO4)c3[nH]c4ccccc4c3C[C@@H]2C1=O [tadalafil, (6R-trans)-6-(1,3-benzodioxol-5-yl)-2,3,6,7,12,12a-hexahydro-2-methyl-pyrazino[1′,2′:1,6]pyrido[3,4-b]indole-1,4-dione]
particle size, d(0.9) ([1]; starting sample before milling (Examples 3-6)): 584 microns and 538.6 microns and 553.5 microns
particle size of 90% of the particles [2]: less than 40 microns
